Results: patent publication US20220370381A1 (priority 2016, published 2022)

Key:
[1] = tested on: T1, β-Adrenergic (Non-selective); assay: Competitive radioligand binding assay, β-adrenergic (non-selective); design: species or system Rat; conditions: test article 1×10^−6 and 1×10^−5 mol/L; rat brain
T1 construct: β-1 adrenergic; other: test article 1×10^−6 and 1×10^−5 mol/L; rat brain

[2] = target: T2, human β-2 adrenergic receptor (Homo sapiens, UniProt P07550); assay: Competitive radioligand binding assay, β2-adrenergic; conditions: test article 1×10^−6 and 1×10^−5 mol/L; human recombinant
T2 sequence (P07550 whole entry): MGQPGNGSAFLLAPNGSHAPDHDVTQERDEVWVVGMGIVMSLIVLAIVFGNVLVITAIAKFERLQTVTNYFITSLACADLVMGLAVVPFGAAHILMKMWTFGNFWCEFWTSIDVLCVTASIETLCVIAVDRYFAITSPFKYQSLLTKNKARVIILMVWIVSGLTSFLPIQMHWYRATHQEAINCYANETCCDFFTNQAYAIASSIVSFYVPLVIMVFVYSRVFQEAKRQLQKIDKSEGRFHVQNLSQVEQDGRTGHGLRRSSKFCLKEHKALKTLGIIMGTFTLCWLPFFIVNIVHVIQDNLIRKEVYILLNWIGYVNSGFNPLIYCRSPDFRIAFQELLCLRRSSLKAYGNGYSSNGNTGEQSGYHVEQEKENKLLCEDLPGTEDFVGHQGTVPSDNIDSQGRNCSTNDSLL

Na channel = tested on: T3, Na channel; assay: Competitive radioligand binding assay, Na channel; design: species or system Rat; conditions: test article 1×10^−6 and 1×10^−5 mol/L; rat brain
T3 construct: other: test article 1×10^−6 and 1×10^−5 mol/L; rat brain

serotonin 5-HT1A = target: T4, serotonin 5-HT1A (Rattus norvegicus, UniProt P19327); assay: Competitive radioligand binding assay, serotonin 5-HT1A
T4 construct: serotonin 5-HT1A (rat cerebral cortex); from tissue; host or cells: rat cerebral cortex
T4 sequence (P19327 1-422): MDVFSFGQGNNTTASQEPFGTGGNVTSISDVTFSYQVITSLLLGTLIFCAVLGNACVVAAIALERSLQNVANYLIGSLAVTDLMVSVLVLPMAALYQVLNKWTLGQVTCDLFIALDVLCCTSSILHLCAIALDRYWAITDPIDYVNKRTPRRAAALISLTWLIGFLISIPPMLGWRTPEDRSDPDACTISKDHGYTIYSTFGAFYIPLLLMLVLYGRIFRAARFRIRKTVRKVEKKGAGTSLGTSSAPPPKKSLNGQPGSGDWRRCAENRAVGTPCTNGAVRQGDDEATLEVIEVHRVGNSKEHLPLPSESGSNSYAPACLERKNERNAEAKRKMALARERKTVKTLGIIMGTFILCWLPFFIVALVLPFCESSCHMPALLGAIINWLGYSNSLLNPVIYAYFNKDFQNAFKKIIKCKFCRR

Sigma non-selective = assay: Competitive radioligand binding assay, sigma non-selective; design: species or system Guinea pig; conditions: test article 1×10^−6 and 1×10^−5 mol/L; guinea pig brain
Swiss OF-1 mice = assay: Step-through passive avoidance, dizocilpine-induced deficit; format: in vivo, mouse
[3] = tested on: homozygous scn1Lab−/− mutant zebrafish; assay: Locomotor (behavioral) assay in homozygous scn1Lab−/− mutant zebrafish larvae (Dravet syndrome model); format: in vivo; conditions: 25, 50 or 100 μM for 24 h, 6 dpf larvae; p<0.05 vs. VHC
Description: (§1) ZF larvae were treated on 6 dpf with vehicle (VHC, 0.1% dimethyl sulfoxide, DMSO, or FA (25, 50 or 100 μM) for 24 h. Thereafter, the locomotor activity (behavior) was monitored by an automated tracking device. Subsequently, forebrain local field potentials and forebrain activity (LFPs, brain activity) were measured to confirm anticonvulsant effects of FA treatment, if indicated by the behavioral assays.

[4] = tested on: homozygous scn1Lab−/− mutant zebrafish; assay: Forebrain local field potential (LFP) recordings in homozygous scn1Lab−/− mutant zebrafish larvae; format: in vivo; conditions: 25, 50 or 100 μM for 24 h; p<0.05 vs. VHC
Description: as §1

[5] = tested on: wild-type zebrafish (ZF) larvae; assay: PTZ-induced seizures in wild-type zebrafish larvae, behavioral (locomotor) assay; format: in vivo; conditions: wt zebrafish; p>0.05 vs. VHC+PTZ
DBA/1 mice [6] = assay: Seizure-induced respiratory arrest (S-IRA) in DBA/1 mice; format: in vivo, mouse
DBA/1 mice [7] = assay: Audiogenic seizures (AGSz) in DBA/1 mice; format: in vivo, mouse
[8] = target: T2, human β-2 adrenergic receptor; assay: β-2 adrenergic receptor antagonist assay, agonist-induced cAMP production (HTRF); format: cell-based; design: expressed in transfected cells; host or cells: HEK-293; conditions: inhibition of isoproterenol-induced cAMP production
Description: Transfected HEK-293 cells expressing human β-1 adrenergic receptor, human β-2 adrenergic receptor, and human β3 adrenergic receptor, respectively, were prepared using cloned human cDNA. See H FRIELLE, T., COLLINS, S., DANIEL, K. W., CARON, M. G., LEFKOWITZ, R. J., KOBILKA, B. K. (1987), Cloning of the cDNA for the human beta1-adrenergic receptor, Proc. Natl. Acad. Sci. U.S.A., 84,7920, and BAKER, J. G. (2005) The selectivity of Beta-adrenoreceptor antagonists at the human Beta1, Beta2 and Beta3 adrenoreceptor, Brit.
Transfected cells were suspended in HBSS buffer (Invitrogen) complemented with 20 mM HEPES (pH 7.4) and 500 μM IBMX. […] The cells were then distributed in 96 well microplates (see FIG. 15 for plating densities).
After plating, the cells were induced by adding reference agonist. See FIG. 15 for reference agonists and concentrations used for each assay. […] The cells were then incubated 30 minutes at room temperature.
Subsequently, the cells were lysed and a fluorescence acceptor (D2-labeled cAMP) and a fluorescence donor (anti-cAMP antibody labeled with europium cryptate) were added to the wells.
Standard reference antagonists were tested in each experiment at several concentrations to generate a concentration-response curve from which its IC50 value is calculated.
EC50 values (concentration producing a half-maximal response) and IC50 values (concentration causing a half-maximal inhibition of the control agonist response) were determined by non-linear regression analysis of the concentration-response curves generated with mean replicate values using Hill equation curve fitting: […]
For the antagonists, the apparent dissociation constants (KB) were calculated using the modified Cheng Prusoff equation:
KB=IC50/[1+(A/EC50A)], where

hNav1.5 = hNav1.5 (Homo sapiens, UniProt Q14524); assay: Ion channel profiling, IonFlux HT automated patch clamp, hNav1.5
Sequence of hNav1.5 (Q14524 whole entry): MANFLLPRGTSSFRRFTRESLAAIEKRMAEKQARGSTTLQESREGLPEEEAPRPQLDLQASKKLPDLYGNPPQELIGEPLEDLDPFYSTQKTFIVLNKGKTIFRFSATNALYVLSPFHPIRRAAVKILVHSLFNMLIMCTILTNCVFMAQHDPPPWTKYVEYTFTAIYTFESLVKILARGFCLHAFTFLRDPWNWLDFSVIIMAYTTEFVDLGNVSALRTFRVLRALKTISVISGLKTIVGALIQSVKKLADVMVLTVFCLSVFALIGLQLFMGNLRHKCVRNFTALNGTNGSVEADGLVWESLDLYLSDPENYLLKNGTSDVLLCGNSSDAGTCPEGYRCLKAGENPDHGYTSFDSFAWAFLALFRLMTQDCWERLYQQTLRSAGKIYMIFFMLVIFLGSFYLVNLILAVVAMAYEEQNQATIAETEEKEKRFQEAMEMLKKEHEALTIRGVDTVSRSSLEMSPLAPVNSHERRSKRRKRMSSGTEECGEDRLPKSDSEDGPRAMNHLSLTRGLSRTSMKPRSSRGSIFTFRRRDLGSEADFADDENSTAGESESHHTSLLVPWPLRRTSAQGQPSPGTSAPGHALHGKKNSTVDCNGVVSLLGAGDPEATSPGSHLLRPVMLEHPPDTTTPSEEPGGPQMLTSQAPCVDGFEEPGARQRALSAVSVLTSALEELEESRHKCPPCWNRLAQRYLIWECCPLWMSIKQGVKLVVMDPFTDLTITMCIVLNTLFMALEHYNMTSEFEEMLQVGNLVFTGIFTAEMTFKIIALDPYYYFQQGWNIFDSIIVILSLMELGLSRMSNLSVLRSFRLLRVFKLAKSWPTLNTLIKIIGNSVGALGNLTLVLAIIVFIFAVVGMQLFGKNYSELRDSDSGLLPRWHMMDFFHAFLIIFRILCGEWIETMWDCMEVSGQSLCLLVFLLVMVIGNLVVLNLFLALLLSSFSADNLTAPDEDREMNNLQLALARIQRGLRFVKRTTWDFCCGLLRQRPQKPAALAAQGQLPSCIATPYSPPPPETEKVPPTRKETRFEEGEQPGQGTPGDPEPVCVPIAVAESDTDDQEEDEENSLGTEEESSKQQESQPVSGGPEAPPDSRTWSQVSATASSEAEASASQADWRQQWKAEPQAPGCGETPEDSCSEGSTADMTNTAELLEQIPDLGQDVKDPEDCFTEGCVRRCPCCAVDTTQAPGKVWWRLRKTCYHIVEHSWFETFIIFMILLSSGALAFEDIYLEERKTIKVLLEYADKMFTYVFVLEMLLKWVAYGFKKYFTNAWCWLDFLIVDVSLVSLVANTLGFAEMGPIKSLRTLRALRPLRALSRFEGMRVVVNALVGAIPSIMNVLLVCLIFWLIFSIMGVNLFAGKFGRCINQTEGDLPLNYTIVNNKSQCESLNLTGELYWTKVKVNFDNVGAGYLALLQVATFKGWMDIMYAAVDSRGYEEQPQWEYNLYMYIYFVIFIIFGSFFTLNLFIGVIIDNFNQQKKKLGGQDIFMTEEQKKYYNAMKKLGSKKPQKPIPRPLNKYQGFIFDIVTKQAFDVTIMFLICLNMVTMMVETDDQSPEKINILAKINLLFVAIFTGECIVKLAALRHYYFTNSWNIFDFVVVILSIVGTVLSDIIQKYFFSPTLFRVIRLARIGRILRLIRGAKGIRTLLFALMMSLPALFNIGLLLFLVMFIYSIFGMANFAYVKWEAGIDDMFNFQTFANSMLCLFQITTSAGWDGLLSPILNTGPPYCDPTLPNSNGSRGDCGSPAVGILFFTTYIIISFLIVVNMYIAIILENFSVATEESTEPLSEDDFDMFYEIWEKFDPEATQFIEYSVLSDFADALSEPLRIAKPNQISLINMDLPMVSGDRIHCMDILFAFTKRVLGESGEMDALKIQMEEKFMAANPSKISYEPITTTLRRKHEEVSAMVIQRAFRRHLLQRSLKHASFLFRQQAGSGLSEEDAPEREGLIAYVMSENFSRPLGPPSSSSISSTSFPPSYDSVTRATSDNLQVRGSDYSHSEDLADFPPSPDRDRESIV

Sigma 1 [9] = target: T5, Sigma 1 (Cavia porcellus, UniProt Q60492); assay: Sigma-1 receptor tissue bioassay, guinea pig vas deferens, agonist activity (twitch contraction); design: Segments of guinea pig vas deferens were suspended in 20-ml organ baths; from tissue; host or cells: guinea pig vas deferens; conditions: field-stimulated guinea pig vas deferens, compound alone
T5 sequence (Q60492 whole entry): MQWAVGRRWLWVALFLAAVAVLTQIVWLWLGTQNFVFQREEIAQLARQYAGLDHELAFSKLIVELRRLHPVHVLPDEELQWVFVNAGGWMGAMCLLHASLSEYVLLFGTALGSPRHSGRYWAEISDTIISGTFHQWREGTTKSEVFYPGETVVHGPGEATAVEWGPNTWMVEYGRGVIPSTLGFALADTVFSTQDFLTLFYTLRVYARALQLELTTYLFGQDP

Sigma 1 [10] = target: T5, Sigma 1; assay: Sigma-1 receptor tissue bioassay, guinea pig vas deferens, antagonist activity ((+)SKF-10047-induced response); design: Segments of guinea pig vas deferens were suspended in 20-ml organ baths; from tissue; host or cells: guinea pig vas deferens

## CCNC(C)Cc1cccc(C(F)(F)F)c1 (racemic) [fenfluramine, (RS)—N-ethyl-1-[3-(trifluoromethyl)phenyl]propan-2-amine]
[1]
  inhibition of receptor binding (tracer): significantly inhibit
[2]
  inhibition of receptor binding (tracer): significantly inhibit
Na channel
  inhibition of receptor binding (tracer): significantly inhibit
Serotonin 5-HT1A
  IC50: 0.573 µM
  Ki: 0.327 µM
Serotonin 5-HT1A; test article 1×10^−6 and 1×10^−5 mol/L, rat cerebral cortex
  inhibition of receptor binding (tracer): significantly inhibit
Sigma non-selective
  inhibition of receptor binding (tracer): significantly inhibit
Swiss OF-1 mice; IP, 0.1 mg/kg not active
  dose attenuating dizocilpine-induced deficit in passive avoidance response (minimal active dose): 0.3 mg/kg
Swiss OF-1 mice; dizocilpine […], most active doses 0.3 and 1 mg/kg IP
  dizocilpine-induced deficit of passive avoidance learning: significantly attenuated
[3]
  epileptiform behavior (locomotor activity): significantly decreased
[4]
  epileptiform brain activity (LFP recordings): anti-epileptiform activity was consistently confirmed
[5]
  antiseizure effect on PTZ-induced seizures: no observable antiseizure effects
DBA/1 mice [6]; 5 mg/kg
  effect on seizures and S-IRA: ineffective
DBA/1 mice [6]; 15 mg/kg, at 16h, p<0.001
  S-IRA: selective S-IRA blocking effect
DBA/1 mice [6]; 40 mg/kg
  time at which S-IRA susceptibility returned: 72 h
DBA/1 mice [6]; 10-20 mg/kg, at 8h
  S-IRA incidence and seizure severity: reduction in S-IRA incidence and seizure severity
DBA/1 mice [6]; 10 and 15 mg/kg, at 12h
  S-IRA susceptibility and seizure severity: significantly (p<0.01) reduced S-IRA susceptibility and seizure severity
DBA/1 mice [6]; Mus musculus, ip, 0.5 h, read-out: ED50, blockade of seizure-induced respiratory arrest (S-IRA)
  ED50: 18.6 mg/kg
DBA/1 mice [6]; time course study, 5-20 mg/kg
  time by which susceptibility to seizure and S-IRA returned: ≤ 48 h
DBA/1 mice [7]; 15 mg/kg, at 16h, p<0.05
  seizure severity: significantly reduced seizure severity
DBA/1 mice [7]; 40 mg/kg
  time at which seizure susceptibility returned: 48 h
DBA/1 mice [7]; 40 mg/kg, at 30 min, p<0.001
  seizures: completely blocked seizures
DBA/1 mice [7]; Mus musculus, ip, 0.5 h, i.p., at 30 min, read-out: ED50, blockade of susceptibility to audiogenic seizures (AGSz)
  ED50: 31 mg/kg
DBA/1 mice [7]; i.p., at 30 min, listed as FFA
  ED50, blockade of susceptibility to audiogenic seizures (AGSz): 21.4 mg/kg
[8]
  antagonist activity at the beta-2 adrenergic receptor: some antagonist activity
hNav1.5
  IC50: > 30 µM
Sigma 1 [9]
  effect on twitch contraction amplitude: did not significantly affect
Sigma 1 [10]; conclusion from guinea pig vas deferens tissue bioassay
  behaviour at the sigma receptor (mode of action): positive allosteric modulators
Sigma 1 [10]; field-stimulated guinea pig vas deferens, (+)SKF-10047 100 μM
  effect on the (+)SKF-10,047-induced increase in twitch contraction amplitude: slightly increased
